{"source": "patent US9512459B2", "about": "(priority 2011, dated 2016)", "key": {"[1]": {"target": "T1, Aspergillus niger glucose dehydrogenase (FAD-GDH) Ang-n1, wild type, SEQ ID NO: 2 (20 N-terminal residues deleted, Ala21 substituted by Met) (Aspergillus niger, UniProt A2QWL1)", "T1 construct": "pET30c, E. coli BL21(DE3), crude extract", "T1 sequence (A2QWL1 with tags, fused parts or gaps)": "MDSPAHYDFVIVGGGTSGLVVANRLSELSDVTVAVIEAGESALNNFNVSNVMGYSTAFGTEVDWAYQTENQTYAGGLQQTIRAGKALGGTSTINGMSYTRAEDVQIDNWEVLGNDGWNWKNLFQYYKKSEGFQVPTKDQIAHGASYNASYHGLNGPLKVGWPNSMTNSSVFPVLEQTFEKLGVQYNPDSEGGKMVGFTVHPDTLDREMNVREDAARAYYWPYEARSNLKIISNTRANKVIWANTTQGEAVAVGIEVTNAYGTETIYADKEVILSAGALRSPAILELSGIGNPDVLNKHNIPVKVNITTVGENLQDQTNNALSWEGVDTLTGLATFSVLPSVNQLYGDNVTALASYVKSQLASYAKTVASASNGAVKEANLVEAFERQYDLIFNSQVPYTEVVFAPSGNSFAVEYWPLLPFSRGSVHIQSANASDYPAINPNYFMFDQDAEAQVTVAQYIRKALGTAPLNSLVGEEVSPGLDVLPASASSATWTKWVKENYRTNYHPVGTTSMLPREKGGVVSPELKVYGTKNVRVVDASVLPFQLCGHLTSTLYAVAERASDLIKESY", "assay": "GDH activity vs glucose, saturation curve (Ang-n1)", "assay_type": "biochemical", "details": "60 ml culture, crude enzyme; glucose 1-40 mM, pH 6.5, DCIP/PMS", "description": "The transformant BL21 (DE3) expressing each mutated enzyme was precultured. The transformant was inoculated in an amount of 1% with respect to 60 ml of a medium A using a 300-ml baffled flask and shake-cultured under conditions involving 20° C., 28 hours, and 125 rpm. After collection of 50 ml of the medium, the bacterial cells were suspended by the addition of BugBuster (registered trademark) protein extraction reagent (Novagen/Merck KGaA) at a ratio of 5 ml per g of wet cells and incubated at room temperature for 15 minutes with gentle shaking. Insoluble fractions were removed by centrifugation (15 Krpm, 4° C., 20 minutes). Then, the obtained supernatant was dialyzed overnight at 4° C. against a 20 mM potassium phosphate buffer solution (pH 6.5). […]\n(§1) The GDH activity was measured in a DCIP (0.3 mM)/PMS (0.6 mM) system using a 20 mM potassium phosphate buffer solution (pH 6.5) as a buffer solution and glucose (Glc; 1, 2, 4, 10, 20, and 40 mM) and xylose (Xyl; 4 and 40 mM) as substrates.\nThe numeric values in the tables represent a mean of several data about specific activity (U/mg) and productivity (U/L) obtained under the same conditions with 40 mM glucose as a substrate. […] The obtained Michaelis-Menten constant (Km value) and apparent maximum activity (Vmax) were determined from a saturation curve determined therefrom."}, "[2]": {"target": "Sclerotinia sclerotiorum glucose dehydrogenase (FAD-GDH) Ssc-n2 variant N191K/S529G/Y70F, SEQ ID NO: 1 (Sclerotinia sclerotiorum, UniProt A7F9L2, N191K/S529G/Y70F)", "details": "crude enzyme, glucose 1-40 mM, pH 6.5, DCIP/PMS", "description": "(§2) The transformant BL21 (DE3) expressing each mutated enzyme was precultured. The transformant was inoculated in an amount of 1% with respect to 60 ml of a medium A using a 300-ml baffled flask and shake-cultured under conditions involving 20° C., 28 hours, and 125 rpm. After collection of 50 ml of the medium, the bacterial cells were suspended by the addition of BugBuster (registered trademark) protein extraction reagent (Novagen/Merck KGaA) at a ratio of 5 ml per g of wet cells and incubated at room temperature for 15 minutes with gentle shaking. Insoluble fractions were removed by centrifugation (15 Krpm, 4° C., 20 minutes). Then, the obtained supernatant was dialyzed overnight at 4° C. against a 20 mM potassium phosphate buffer solution (pH 6.5). After the completion of the dialysis, the dialysate was centrifuged, and the supernatant was used as a crude enzyme preparation. Insoluble fractions were suspended in a 20 mM potassium phosphate buffer solution (pH 6.5) at a ratio of 1 ml per 2 ml of the suspension containing the insoluble fractions.\n(§3) A small-scale expression system was used for some multiple-mutated enzymes. The transformant BL21 (DE3) expressing each mutated enzyme was precultured, and the transformant was inoculated in an amount of 1 vol % with respect to 3 ml of a medium A. The bacterial cells were shake-cultured at 37° C. for 4 hours and then shake-cultured at 20° C. for 20 hours. After the culture, 2 ml of the medium was collected, then suspended by the addition of 400 μl of BugBuster (registered trademark), and then shaken at room temperature for 15 minutes. Then, the suspension was centrifuged (15000 rpm, 4° C., 20 minutes), and the obtained supernatant was used as a crude enzyme preparation.\nas §1\n(§4) The numeric values in the tables represent a mean of several data about specific activity (U/mg) and productivity (U/L) obtained under the same conditions with 40 mM glucose as a substrate. The obtained crude enzyme preparation was used to observe the correlation between the concentration of the substrate (glucose; 1, 2, 4, 10, 20, and 40 mM) and the activity. The obtained Michaelis-Menten constant (Km value) and apparent maximum activity (Vmax) were determined from a saturation curve determined therefrom."}, "[3]": {"target": "Sclerotinia sclerotiorum glucose dehydrogenase (FAD-GDH) Ssc-n2 variant N191K/S529G/G69A, SEQ ID NO: 1 (Sclerotinia sclerotiorum, UniProt A7F9L2, G69A/N191K/S529G)", "details": "crude enzyme, glucose 1-40 mM, pH 6.5, DCIP/PMS", "description": "as §2, §3, §1, §4"}, "[4]": {"target": "Sclerotinia sclerotiorum glucose dehydrogenase (FAD-GDH) Ssc-n2 variant N191K/S529G, SEQ ID NO: 1 (Sclerotinia sclerotiorum, UniProt A7F9L2, N191K/S529G)", "details": "crude enzyme, glucose 1-40 mM, pH 6.5, DCIP/PMS", "description": "as §2, §3, §1, §4"}, "[5]": {"target": "Sclerotinia sclerotiorum glucose dehydrogenase (FAD-GDH) Ssc-n2 variant N191K/S529G/G69H, SEQ ID NO: 1 (Sclerotinia sclerotiorum, UniProt A7F9L2, G69H/N191K/S529G)", "details": "crude enzyme, glucose 1-40 mM, pH 6.5, DCIP/PMS", "description": "as §2, §3, §1, §4"}, "[6]": {"target": "Sclerotinia sclerotiorum glucose dehydrogenase (FAD-GDH) Ssc-n2 variant N191K/S529G/G69N, SEQ ID NO: 1 (Sclerotinia sclerotiorum, UniProt A7F9L2, G69N/N191K/S529G)", "details": "crude enzyme, glucose 1-40 mM, pH 6.5, DCIP/PMS", "description": "as §2, §3, §1, §4"}, "[7]": {"target": "Sclerotinia sclerotiorum glucose dehydrogenase (FAD-GDH) Ssc-n1, wild type, SEQ ID NO: 1 (16 N-terminal residues deleted, Ser17 substituted by Met) (Sclerotinia sclerotiorum, UniProt A7F9L2)", "assay": "GDH activity vs glucose, saturation curve (Ssc-n1)", "assay_type": "biochemical", "details": "crude enzyme, glucose 1-40 mM, pH 6.5, DCIP/PMS", "description": "as §2, §3, §1, §4"}}, "note": "Read-outs that look alike come from different tables or passages of the source.", "data": [{"smiles": "OC[C@H]1OC(O)[C@H](O)[C@@H](O)[C@@H]1O", "note": "(stereo partly drawn) [glucose]", "values": [{"measurement": "Vmax", "setting": "[1]", "value": 0.2, "unit": "U/mg protein"}, {"measurement": "Vmax", "setting": "[2]; 3 ml culture", "value": 9.0, "unit": "U/mg protein"}, {"measurement": "Vmax", "setting": "[2]; 60 ml culture", "value": 23.8, "unit": "U/mg protein"}, {"measurement": "Vmax", "setting": "[3]; 3 ml culture", "value": 15.8, "unit": "U/mg protein"}, {"measurement": "Vmax", "setting": "[3]; 60 ml culture", "value": 26.4, "unit": "U/mg protein"}, {"measurement": "Vmax", "setting": "[4]; 3 ml culture", "value": 16.9, "unit": "U/mg protein"}, {"measurement": "Vmax", "setting": "[4]; 60 ml culture", "value": 38.2, "unit": "U/mg protein"}, {"measurement": "Vmax", "setting": "[5]; 3 ml culture", "value": 11.1, "unit": "U/mg protein"}, {"measurement": "Vmax", "setting": "[5]; 60 ml culture", "value": 6.9, "unit": "U/mg protein"}, {"measurement": "Vmax", "setting": "[6]; 3 ml culture", "value": 11.5, "unit": "U/mg protein"}, {"measurement": "Vmax", "setting": "[6]; 60 ml culture", "value": 13.9, "unit": "U/mg protein"}, {"measurement": "Km", "setting": "[7]; 3 ml culture", "value": 14.3, "unit": "mM"}, {"measurement": "Vmax", "setting": "[7]; 3 ml culture", "value": 2.2, "unit": "U/mg protein"}, {"measurement": "Km", "setting": "[7]; 60 ml culture", "value": 16.6, "unit": "mM"}, {"measurement": "Vmax", "setting": "[7]; 60 ml culture", "value": 0.7, "unit": "U/mg protein"}]}]}
